Test results published in US20250269072A1, “PROCESSES FOR PREPARING RADIOLABELLED CONJUGATES” (CENTENARY INSTITUTE OF CANCER MEDICINE AND CELL BIOLOGY, priority 2021, published 2025).
Several values for one entry are separate records, joined by “and”; a condition that tells them apart may be missing. Identical values can stand only once.

How the values were obtained:
[1] = In-human study of ^68Ga-CDI: safety and tolerability; assay type: in vivo; conditions: 5 subjects
Source text: This open label, single arm interventional study recruited subjects with histologically or cytologically confirmed solid malignancy with at least one measurable lesion >2 cm. The study was approved by the South Eastern Sydney Local Health District Human Research Ethics committee (2019/ETH04821) and all subjects signed an informed consent form. […] Within 28 days of undergoing the study subjects were screened to ensure they met inclusion and exclusion criteria and written consent obtained. Although not an inclusion criteria for participation in this study, all patients also underwent an FDG PET CT between 3-11 days prior to CDI PET CT as part of standard of care.
Subjects were encouraged to be well orally hydrated prior to ^68Ga-CDI administration, otherwise there was no preparation required. Two intravenous cannulas were placed (one for administration of ^68Ga-CDI and the other blood sampling during the study). Immediately prior to ^68Ga-CDI administration clinical assessment of participants was performed, vital signs (blood pressure, heart rate, respiratory rate, arterial oxygen saturation and temperature) measured and a 12-lead electrocardiogram (ECG) obtained and QTc calculated according to Bazett's formula to confirm eligibility. ^68Ga-CDI was administered as an intravenous bolus.
During and immediately following completion of the scanning protocol, subjects were clinically assessed for adverse reactions and vital signs measured. Blood was collected for venous radioactivity measurements at 1, 2 and 3 hours following ^68Ga-CDI administration. Subjects were asked to void between 1.5 to 2 h and 2.75 to 3 h after ^68Ga-CDI administration, urine collected, the volume measured, and an aliquot counted in a gamma counter to determine activity concentration. Following completion of the scanning protocol, ECG was recorded, and blood collected for biochemical and haematological assessment.
On the day following the ^68Ga-CDI PET CT subjects were clinically assessed for adverse reactions, vital signs, ECG obtained, and blood collected for biochemical and haematological assessment. […]

[2] = In-human study of ^68Ga-CDI: radiation dosimetry (OLINDA/EXM 1.1); assay type: in vivo; conditions: 5 participants
Source text: Activity concentrations derived above were entered into OLINDA/EXM 1.1 and bi-exponential curves fitted using the curve fitting tools within OLINDA/EXM 1.1 (Stabin et al., J Nucl Med. 2005; 46:1023-1027).

O=C(O)CNC(=O)[C@H](CSCC(=O)Nc1ccc([As](O)O)cc1)NC(=O)CC[C@H](NC(=O)CCC1C(=O)[O][68Ga]2[O]C(=O)CN3CCN(CCN1CC3)CC(=O)[O]2)C(=O)O (some centres unmarked) [^68Ga-NODAGA-GSAO]
adverse or pharmacologic effects [1]: no adverse or clinically detectable pharmacologic effects
vital signs, laboratory studies, electrocardiograms [1]: No significant changes
tolerability ([1]; 205±4.1 MBq i.v.): well tolerated
Estimated radiation dose, Average ([2]; Adrenals): 1.28E−02 mSv/MBq
Estimated radiation dose, Average ([2]; Brain): 1.75E−03 mSv/MBq
Estimated radiation dose, Average ([2]; Breasts): 7.03E−03 mSv/MBq
Estimated radiation dose, Average ([2]; Effective dose, listed as 68Ga-CDI): 2.17E-02±4.61E-03 mSv/MBq and 2.17E−02 mSv/MBq
Estimated radiation dose, Average ([2]; Gallbladder Wall): 8.16E−03 mSv/MBq
Estimated radiation dose, Average ([2]; Heart Wall): 1.02E−02 mSv/MBq
Estimated radiation dose, Average ([2]; Kidneys, listed as 68Ga-CDI): 4.89E-02±3.55E-03 mSv/MBq and 4.89E−02 mSv/MBq
Estimated radiation dose, Average ([2]; LLI Wall): 1.91E−02 mSv/MBq
Estimated radiation dose, Average ([2]; Liver): 1.61E−02 mSv/MBq
Estimated radiation dose, Average ([2]; Lungs): 7.75E−03 mSv/MBq
Estimated radiation dose, Average ([2]; Muscle): 8.96E−03 mSv/MBq
Estimated radiation dose, Average ([2]; Osteogenic Cells): 1.13E−02 mSv/MBq
Estimated radiation dose, Average ([2]; Ovaries): 1.20E−02 mSv/MBq
Estimated radiation dose, Average ([2]; Pancreas): 1.52E−02 mSv/MBq
Estimated radiation dose, Average ([2]; Red Marrow): 8.89E−03 mSv/MBq
Estimated radiation dose, Average ([2]; Skin): 5.39E−03 mSv/MBq
Estimated radiation dose, Average ([2]; Small Intestine): 1.45E−02 mSv/MBq
Estimated radiation dose, Average ([2]; Spleen): 1.59E−02 mSv/MBq
Estimated radiation dose, Average ([2]; Stomach Wall): 1.00E−02 mSv/MBq
Estimated radiation dose, Average ([2]; Testes): 1.67E−02 mSv/MBq
Estimated radiation dose, Average ([2]; Thymus): 6.32E−03 mSv/MBq
Estimated radiation dose, Average ([2]; Thyroid): 1.26E−02 mSv/MBq
Estimated radiation dose, Average ([2]; Total Body): 9.66E−03 mSv/MBq
Estimated radiation dose, Average ([2]; ULI Wall): 1.23E−02 mSv/MBq
Estimated radiation dose, Average ([2]; Urinary Bladder Wall, listed as 68Ga-CDI): 2.79E-01±1.11E-01 mSv/MBq and 2.79E−01 mSv/MBq
Estimated radiation dose, Average ([2]; Uterus): 2.63E−02 mSv/MBq
